Test system: T1, GCaMP5-expressing T. gondii
T1 construct: whole extracellular parasites expressing GCaMP5 Ca2+ sensor
Set-up: species or system GCaMP5-expressing Toxoplasma gondii, extracellular; GCaMP5 fluorescence (cytosolic Ca2+) after 100 uM zaprinast in compound-pretreated extracellular parasites, background-subtracted, relative to zaprinast alone
Conditions: 100 uM zaprinast stimulation; 10 min pretreatment; mean of two replicates; 0.23 h
Procedure, shortened: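 Extracellular GCaMP5-expressing parasites in Ringer's solution were pretreated with compounds (single 10 μM dose, two biological replicates) for 10 min, then stimulated with 100 μM zaprinast at 37 °C for 4 min. Fluorescence read at 485/525 nm, basal subtracted, expressed as fold change relative to zaprinast-only parasites.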

Structure (SMILES)	fold change in fluorescence relative to zaprinast alone
O=C(NCCNc1ccnc(Nc2ccc(F)cc2)n1)c1cc2ccccc2s1 [GSK1379874A]	0.6895
Cc1ccc(C)c(NC(=O)NCCNc2ccnc(Nc3ccc(F)cc3)n2)c1 [GSK1379878A]	1.583
COc1cccc(NC(=O)NCCNc2ccnc(Nc3ccc(F)cc3)n2)c1 [GSK1379879A]	1.178
O=C(NCCNc1ccnc(Nc2ccc(F)cc2)n1)Nc1ccccc1F [GSK1379880A]	1.302
O=C(NCCNc1ccnc(Nc2ccc(F)cc2)n1)Nc1ccc2c(c1)OCO2 [GSK1379882A]	1.425
COC(=O)c1cccc(NC(=O)NCCNc2ccnc(Nc3ccc(F)cc3)n2)c1 [GSK1379883A]	0.8839
COc1ccc(Nc2nccc(NCCNC(=O)c3cc4ccccc4s3)n2)cc1 [GSK1379896A]	1.173
COc1ccc(Nc2nccc(NCCNC(=O)Nc3cc(C)ccc3C)n2)cc1 [GSK1379899A]	1.713
COc1ccc(Nc2nccc(NCCNC(=O)Nc3ccccc3F)n2)cc1 [GSK1379901A]	0.9014
O=C(NCCNc1ccnc(NCc2ccc(F)cc2)n1)c1cc2ccccc2s1 [GSK1379944A]	0.7055
CCNCC(Cc1ccccc1)NC(=O)c1cc(Br)c(-c2ccnc3[nH]ccc23)s1 (stereo not shown) [GSK1383280A]	0.5995
CC(C)NCC(Cc1ccccc1)NC(=O)c1cc(Br)c(-c2ccnc3[nH]ccc23)s1 (stereo not shown) [GSK1383281A]	1.049
COc1ccc(C[C@@H](CN)NC(=O)c2cc(Br)c(-c3ccnc4[nH]ccc34)s2)cc1 [GSK1389063A]	0.8633
COc1cc(N2CCN(C(C)C)CC2)ccc1Nc1nc(Nc2ccc(F)cc2C(=O)NC[C@@H](O)CO)c2cc[nH]c2n1 [GSK1392956A]	1.138
Cc1ccc(NC(=O)c2ccc(Cl)c(Cl)c2)cc1-c1ccc(C(=O)Nc2ccncc2)cc1 [GSK1398460A]	1.557
Cc1ccc(NC(=O)c2cccc(C#N)c2)cc1-c1ccc(C(=O)Nc2ccncc2)cc1 [GSK1398463A]	1.609
Cc1ccc(NC(=O)Nc2cccc(Cl)c2)cc1-c1ccc(C(=O)Nc2ccncc2)cc1 [GSK1398468A]	0.4262
Cc1ccc(NC(=O)Nc2ccc(Cl)c(C(F)(F)F)c2)cc1-c1ccc(C(=O)Nc2ccncc2)cc1 [GSK1398470A]	0.581
Cc1ccc(C)c(NC(=O)Nc2ccc(C)c(-c3ccc(C(=O)Nc4ccncc4)cc3)c2)c1 [GSK1398473A]	1.092
COc1cccc(NC(=O)Nc2ccc(C)c(-c3ccc(C(=O)Nc4ccncc4)cc3)c2)c1 [GSK1398474A]	1.231

Structure (SMILES)	fold change in fluorescence relative to zaprinast alone
Cc1cc(-c2ccnc(Nc3cccc(C#N)c3)n2)cc(C)c1O [GSK1440913A]	0.3868
NC[C@H](Cc1ccc(C(F)(F)F)cc1)NC(=O)c1cc(Br)c(-c2ccnc3[nH]ccc23)s1 [GSK1487252A]	0.4926
CNC(=O)c1ccccc1Nc1nc(Nc2cccc(CS(C)(=O)=O)c2)ncc1C [GSK1520489A]	1.293
NS(=O)(=O)c1cccc(-c2ccc3ncc(N4CCOCC4)nc3c2)c1 [GSK1535721A]	1.22
COc1ccc(Nc2ncc(C#N)c(Nc3ccccc3C(N)=O)n2)cc1N1CCN(C)CC1 [GSK1558669A]	1.412
CNC(=O)c1ccccc1Nc1nc(Nc2ccc(N3CCOCC3)cc2)ncc1Cl [GSK1576028A]	1.198
NC[C@H](CC1CCCCC1)NC(=O)c1cc(Br)c(-c2ccnc3[nH]ccc23)s1 [GSK1581427A]	1.128
NC[C@H](CC1CCCCC1)NC(=O)c1ccc(-c2ccnc3[nH]ccc23)s1 [GSK1581428A]	1.197
Nc1ncc(-c2ccc3nccc(-c4ccncc4)c3c2)cc1S(=O)(=O)N1CCOCC1 [GSK1627798A]	1.041
CC(=O)N1CCN(c2ccc(Nc3nccc(-c4sc(C(C)C)nc4-c4cccc(NS(=O)(=O)c5ccccc5)c4)n3)cn2)CC1 [GSK1645872A]	0.8017
CC(C)c1nc(-c2cccc(NS(=O)(=O)c3ccccc3)c2)c(-c2ccnc(Nc3ccc4c(c3)CN(C)CC4)n2)s1 [GSK1649598A]	0.9359
Cc1cc(N2CCC(NS(=O)(=O)c3ccc(F)cc3)CC2)nc(Nc2cccc(C#N)c2)n1 [GSK1653537A]	0.8395
COc1ccc(S(=O)(=O)NC2CCN(c3cc(C)nc(Nc4cccc(C#N)c4)n3)CC2)cc1 [GSK1653539A]	0.8764
CC(=O)N1CCN(c2ccc(Nc3nccc(-c4sc(C(C)C)nc4-c4cccc(NS(=O)(=O)c5cccc(Cl)c5)c4)n3)cn2)CC1 [GSK1660437A]	1.275
Cc1occc1-c1nc(N)c(OC[C@@H](N)Cc2c[nH]c3ccccc23)cc1-c1cc2c(C)[nH]nc2cn1 [GSK1660450B]	1.179
Cc1cc(N2Cc3ccccc3C2)nc(Nc2ccc(S(=O)(=O)N3CCOCC3)cc2)n1 [GSK1669917A]	1.107
CN(C)S(=O)(=O)c1cc(-c2ccc3nccc(-c4cccc(S(N)(=O)=O)c4)c3c2)cnc1N [GSK1669921A]	1.101
Nc1ncc(-c2ccc3nccc(-c4ccncc4)c3c2)cc1S(=O)(=O)N1CCCCC1 [GSK1693850A]	0.1427
CCCN1CCC(Oc2cc(Nc3nc(Nc4cccc(F)c4C(N)=O)c4cc[nH]c4n3)c(OC)cc2Cl)CC1 [GSK1713088A]	1.364
CC(C)c1nc(-c2cccc(NS(=O)(=O)c3c(F)cccc3F)c2)c(-c2ccnc(Nc3ccc(N4CCOCC4)nc3)n2)s1 [GSK1723980B]	0.6316

Structure (SMILES)	fold change in fluorescence relative to zaprinast alone
CC(C)c1nc(-c2ccc(F)c(NS(=O)(=O)c3c(F)cccc3F)c2)c(-c2ccnc(Nc3ccc(N4CCOCC4)nc3)n2)s1 [GSK1804250A]	1.361
COc1cc(N2CCN(C(C)C)CC2)ccc1Nc1nc(Nc2cccc(F)c2C(=O)O)c2cc[nH]c2n1 [GSK1819799A]	1.115
Cc1ccc(NC(=O)c2cccc(N3CCCCC3)c2)cc1-c1ccc(C(=O)NCC2CC2)cc1 [GSK1917008A]	1.193
CC(C)c1nc(-c2cccc(NS(=O)(=O)c3c(F)cccc3F)c2F)c(-c2ccnc(Nc3ccc(N4CCOCC4)nc3)n2)s1 [GSK2008607A]	1.572
COc1cc2c(cc1Nc1nc(Nc3ccsc3C(N)=O)c3cc[nH]c3n1)N(C(=O)CN(C)C)CCC2 [GSK2110236A]	1.302
N#Cc1ccc(CCNc2nccc(-c3cccc(CN4CCNCC4)c3)n2)cc1 [GSK2137462A]	0.3754
COc1cc2c(cc1Nc1nc(Nc3ccsc3C(N)=O)c3cc[nH]c3n1)N(C(=O)CN(C)C)CCC2(C)C [GSK2163632A]	1.131
O=c1[nH]ccc2nc(N[C@@H]3CCCNC3)nc(Nc3ccc(S(=O)(=O)N4CCOCC4)cc3)c12 [GSK2177277A]	1.049
O=c1[nH]ccc2nc(N[C@@H]3CCNC3)nc(Nc3ccc4c(c3)S(=O)(=O)CC4)c12 [GSK2181306A]	1.236
COc1cc2c(cc1Nc1nc(N3CCc4ccccc43)c3cc[nH]c3n1)N(C(=O)CN(C)C)CC2 [GSK2186269A]	1.113
O=c1[nH]ccc2nc(N[C@@H]3CCNC3)nc(Nc3cc(Cl)cc(Cl)c3)c12 [GSK2188764A (Enh2)]	2.366
Nc1n[nH]c2cc(-c3ccccn3)ccc12 [GSK2189892A]	1.03
Nc1cccc(-c2ccc3c(N)n[nH]c3c2)n1 [GSK2192730A]	1.059
Nc1cccc(-c2ccc3c(N)n[nH]c3c2)c1 [GSK2193613A]	0.7898
Cc1cccc(Nc2nc(N[C@H]3CCNC3)ncc2C(N)=O)c1 [GSK2197149A]	1.037
CNc1nccc(-c2ccc3c(N)n[nH]c3c2)n1 [GSK2206003A]	1.243
COc1cc(C)c(NC(=O)CN(C)C)cc1Nc1nc(Nc2cccc(F)c2C(N)=O)c2cc[nH]c2n1 [GSK2213727A]	1.59
CN(C)c1cc(-c2ccc3c(N)n[nH]c3c2)nc(N)n1 [GSK2219329A]	0.9361
